This is an account of results in patent publication US20190031618A1, “BENZIMIDAZOLE DERIVATIVES USEFUL AS CB-1 INVERSE AGONISTS” (Janssen Pharmaceutica NV, priority 2015, published 2019).

For experiment [1], the target named is Human CB1R (Cannabinoid receptor 1) (Homo sapiens, UniProt P21554). In words: CB-1 in vitro cAMP (HTRF) assay. In kind it is cell-based. Particulars: HEK cells, cAMP HTRF, 250 nM forskolin; mean where tested more than once; read-out: CB1 HEK_cAMP EC50. From the text: (§1) CB1 and CB2 receptors are Gi-coupled GPCR. Activation of CB1 and CB2 receptors results in a decrease in cAMP production. An inverse agonist of the CB1 or CB2 receptor results in the opposite effect, an increase of cAMP production. The principle of this assay is based on HTRF® technology (Homogeneous Time-Resolved Fluorescence). The method is a competitive immunoassay between native cAMP produced by cells and the cAMP labeled with the fluorophore d2. The tracer binding is quantified by a Mab anti-cAMP labeled with Eu3+TBP-NHS Cryptate (supplied as part of the assay kit). The specific signal (i.e. energy transfer) is inversely proportional to the concentration of cAMP in the standard or sample.
Human CB1R (Cannabinoid receptor 1) was stably transfected in HEK-293 cells (DiscoveRx, cat: 93-0200C1). Human CB2R (Cannabinoid receptor 2) was stably transfected in HEK-293 cells (DiscoveRx, cat: 93-0201C1).
One day prior to experiments media was warmed to 37° C. and the cryo-stored cells were thawed in a 37° C. water bath. The cells were then added to media (10× volume) and the mixture was centrifuged at 1000 RPM for 5 min. The supernate was removed and the cells were re-suspended in media. A sample of the cell suspension was evaluated on a Cedex XS automated cell counter (Innovatis Systems) to determine viable cells/ml. Additional media was added to the cells to achieve a final cell density of 4E5 cells/mL. […] Cells were removed from Row P (location of cAMP standards). […] The cell plates were lidded and stored for 15 minutes in a hood, then transferred to an incubator (37° C., 5% CO2, 95% humidity) overnight.
Test compounds (60 μL, 10 mM) were added to Column 1 and 13 (A1 through N1 and A13 through L13). Test compounds were serially diluted 1/3 by transferring and mixing 20 μl sample with 40 μL DMSO.
DMSO (40 μL) was added to wells of 384 well V bottom polystyrene plate: O2 through O11, M14 through M23, N14 through N23, and O14 through O23. […] The control was serially diluted 1/3 by transferring and mixing 20 μl sample with 40 μL DMSO. This process resulted 11 doses per control, 10 mM to 0.5 μM.
Cells plated the day prior to the assay in clear bottom plates were viewed on an inverse microscope to ensure confluency in the range of 60-75%.
A FLEXDROP (Perkin Elmer) was cleaned with ethanol then water, and primed with Buffer 2. A 384 well V bottom polypropylene plate containing d2 labelled cAMP and a second 384 well V bottom polypropylene plate containing anti-cAMP was prepared (50 μl per well). Media as “dumped” from the cell plate and 30 μL Buffer 1 was added to each well using a Multidrop. The content of the cell plate was again “dumped” and 10 μL Buffer 2 was added to each well using a Flexdrop. […] The cell plate was mixed (Speed 6, Lab-Line Instruments Titer Plate Shaker) and centrifuged (1000 RPMs, 1 min). […] The cell plate was again mixed (speed 6) and centrifuged (1000 RPMs, 1 min). The cell plate was incubated for 30 minutes at room temperature (˜27° C.). The contents of row P were removed and the cAMP standard dilutions were added in duplicate to Row P (P1-12 and P13-24). After incubation, 6 μL d2 labelled cAMP and 6 μL of Anti-cAMP were added to all wells of the cell plate using a BioMek FX (Beckman Coulter). The cell plate was again mixed (speed 6) and centrifuged (1000 RPMs, 1 min) and was incubated for 60 minutes in the dark at room Temp (˜27° C.).
After this final incubation, the cell plate was read in HTRF mode (fluorescence at 665 nm and 620 nm) on an Envision plate Reader (Perkin Elmer). The Envision reader outputs a ratio of channel 1/channel 2 fluorescence×10,000 (Normalized signal (NS)). Amount of cAMP in nM was calculated for each well (based on NS) from a cAMP standard curve located on each plate (at P1-12 and P13-24). EC50 values were determined from a 4-point fit (Hill equation) of a single 11-point compound dosing. Hill slope was fixed at 1.0.
A general note: TR-FRET usually uses a lanthanide donor and a delayed reading to cut background.

For experiment [2], the target named is Human CB2R (Cannabinoid receptor 2) (Homo sapiens, UniProt P34972). The experiment in a line: CB-2 in vitro cAMP (HTRF) assay. It is filed as cell-based. The settings on record: HEK cells, cAMP HTRF, 250 nM forskolin; mean where tested more than once; read-out: CB2 HEK_cAMP EC50.
Description: as §1
Human CB1R (Cannabinoid receptor 1) was stably transfected in HEK-293 cells (DiscoveRx, cat: 93-0200C1). Human CB2R (Cannabinoid receptor 2) was stably transfected in HEK-293 cells (DiscoveRx, cat: 93-0201C1). Cell cultures were maintained in media: DMEM (Invitrogen Cat#12430-054) supplemented with 10% HI FBS (Invitrogen Cat#16140-071), 1% L-glutamine (Invitrogen Cat#25030-081), 0.2 mg/ml Hygromycin B (Invitrogen Cat#10687-010), 600 μg/mL G418 (Invitrogen Cat#10131-035), and 1× Penn/Strep (Invitrogen 15140-122). After cell expansion, aliquots were cryo-stored in media containing 5% DMSO (Pierce Cat#20684).
One day prior to experiments media was warmed to 37° C. and the cryo-stored cells were thawed in a 37° C. water bath. The cells were then added to media (10× volume) and the mixture was centrifuged at 1000 RPM for 5 min. The supernate was removed and the cells were re-suspended in media. A sample of the cell suspension was evaluated on a Cedex XS automated cell counter (Innovatis Systems) to determine viable cells/ml. Additional media was added to the cells to achieve a final cell density of 4E5 cells/mL. The cells were then plated into 384 well PDL white solid bottom plates (Greiner, Cat#781945) at 20 μL per well using a Multidrop (Thermo Scientific). Cells were removed from Row P (location of cAMP standards). Two columns of cells were plated into a clear bottom 384 well PDL coated plate (Greiner, Cat#781944) to view confluence the day of the assay. The cell plates were lidded and stored for 15 minutes in a hood, then transferred to an incubator (37° C., 5% CO2, 95% humidity) overnight.
DMSO was added to all wells of 384 well V bottom polystyrene plate (Greiner, Cat#781280) except to columns 1 and 13, rows O and P and wells M13-M23 and N13-N23. Test compounds (60 μL, 10 mM) were added to Column 1 and 13 (A1 through N1 and A13 through L13). Test compounds were serially diluted 1/3 by transferring and mixing 20 μl sample with 40 μL DMSO.
DMSO (40 μL) was added to wells of 384 well V bottom polystyrene plate: O2 through O11, M14 through M23, N14 through N23, and O14 through O23. AM630 (also known as [6-iodo-2-methyl-1-[2-(4-morpholinyl)ethyl]-1H-indol-3-yl](4-methoxyphenyl)-methanone, Cayman Chemical, Cat#10006974) (60 μL, 10 mM) was added to O1; and 1-(2,4-dichlorophenyl)-7-[(4-fluorophenyl)methylene]-4,5,6,7-tetrahydro-N-1-piperidinyl-1H-benzimidazole-3-carboxamide (60 μL, 10 mM) was added to N13. The control was serially diluted 1/3 by transferring and mixing 20 μl sample with 40 μL DMSO. This process resulted 11 doses per control, 10 mM to […].
Cells plated the day prior to the assay in clear bottom plates were viewed on an inverse microscope to ensure confluency in the range of 60-75%. […]

The structures appear in SMILES notation. Bounds are passed on as bounds.

Chain of Human CB2R (Cannabinoid receptor 2) (P34972 whole entry): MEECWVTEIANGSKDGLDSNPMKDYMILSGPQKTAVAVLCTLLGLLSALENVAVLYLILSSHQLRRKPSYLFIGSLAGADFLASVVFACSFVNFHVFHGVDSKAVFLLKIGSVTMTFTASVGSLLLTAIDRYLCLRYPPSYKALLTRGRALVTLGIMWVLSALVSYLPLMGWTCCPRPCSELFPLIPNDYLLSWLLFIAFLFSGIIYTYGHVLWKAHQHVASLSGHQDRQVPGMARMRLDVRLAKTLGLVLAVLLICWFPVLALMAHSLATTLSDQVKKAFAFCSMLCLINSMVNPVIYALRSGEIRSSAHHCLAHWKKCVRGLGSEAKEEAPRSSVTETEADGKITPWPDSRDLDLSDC
Chain of Human CB1R (Cannabinoid receptor 1) (P21554 whole entry): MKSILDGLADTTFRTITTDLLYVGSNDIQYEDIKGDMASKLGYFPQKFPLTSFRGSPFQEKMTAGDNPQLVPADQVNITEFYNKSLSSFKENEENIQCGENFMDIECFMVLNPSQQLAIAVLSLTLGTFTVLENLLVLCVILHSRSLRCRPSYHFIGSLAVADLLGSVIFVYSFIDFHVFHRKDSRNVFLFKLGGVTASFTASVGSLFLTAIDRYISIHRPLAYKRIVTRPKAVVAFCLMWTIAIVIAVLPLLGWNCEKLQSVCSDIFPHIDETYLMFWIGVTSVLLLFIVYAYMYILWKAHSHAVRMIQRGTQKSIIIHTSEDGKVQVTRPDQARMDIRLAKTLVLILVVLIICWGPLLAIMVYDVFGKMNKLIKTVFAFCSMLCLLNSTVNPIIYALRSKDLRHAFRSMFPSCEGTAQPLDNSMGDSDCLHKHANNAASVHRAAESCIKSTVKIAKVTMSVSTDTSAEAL

Regarding `CC(c1cccc(C(=O)O)c1)N1CCC(n2c(C3CC3)nc3ccc(C(c4ccc(Cl)cc4)c4ccc(Cl)cc4)cc32)CC1` (single isomer, unassigned) [Example 47], the results for the concentration for a half-maximal effect (EC50) in experiment [1] and in experiment [2] were 0.0024 µM and 17.1 µM, respectively.
For `CC(c1cccc(C(=O)O)c1)N1CCC(n2c(C3CC3)nc3ccc(C(c4ccc(Cl)cc4)c4ccc(Cl)cc4)cc32)CC1` (single isomer, unassigned) [Example 48] the same measures were 0.003 µM and 3.84 µM.
In the same order, the values of `OC(Cn1c(C2CC2)nc2ccc(C(c3ccc(Cl)cc3)c3ccc(Cl)cc3)cc21)c1ccccc1` (single isomer, unassigned) [Example 289] are 0.0292 µM and greater than 10 µM.
`CCc1nc2ccc(C(c3ccc(Cl)cc3)c3ccc(Cl)cc3)cc2n1CC(C)c1ccccc1` (single isomer, unassigned) [Example 312]: the half-maximal effective concentration (EC50) – broadly, the concentration that produces a half-maximal response – came out at 0.0492 µM in experiment [1] and 1.5 µM in experiment [2].
In the same order, the values of `O=C(O)c1ccc(N2CCC(Cn3c(C4CC4)nc4ccc(C(c5ccc(Cl)cc5)c5ccc(Cl)cc5)cc43)CC2)cc1` [Example 1] are 0.0114 µM and 2.85 µM.
For `O=C(O)c1ccnc(N2CCC(Cn3c(C4CC4)nc4ccc(C(c5ccc(Cl)cc5)c5ccc(Cl)cc5)cc43)CC2)n1` [Example 2] the same measures were 0.479 µM and 5.03 µM.
For `O=C(O)c1cnc(N2CCC(Cn3c(C4CC4)nc4ccc(C(c5ccc(Cl)cc5)c5ccc(Cl)cc5)cc43)CC2)nc1` [Example 4], the values for the EC50 in experiment [1] and in experiment [2] were 0.0098 µM and 2.16 µM, respectively.
Take `COC(=O)c1cnc(N2CCC(Cn3c(C4CC4)nc4ccc(C(c5ccc(Cl)cc5)c5ccc(Cl)cc5)cc43)CC2)nc1` [Example 5]: the half-maximal effective concentration (EC50) in experiment [1] worked out at 0.033 µM; in experiment [2], 0.632 µM.
In the same order, the values of `O=C(O)c1ccc(-c2cccc(CCn3c(C4CC4)nc4ccc(C(c5ccc(Cl)cc5)c5ccc(Cl)cc5)cc43)c2)s1` [Example 6] are 0.0283 µM and 3.88 µM.
Turning to `Clc1ccc(C(c2ccc(Cl)cc2)c2ccc3nc(C4CC4)n(CCOc4cccc(Br)c4)c3c2)cc1` [Example 7], the EC50 in experiment [1] stood at 0.0267 µM; in experiment [2] it was 7.6 µM.
For `O=C(O)c1ccc(-c2cccc(S(=O)(=O)NCCCn3c(C4CC4)nc4ccc(C(c5ccc(Cl)cc5)c5ccc(Cl)cc5)cc43)c2)cc1` [Example 8] the same measures were 0.0339 µM and 0.0782 µM.
Turning to `O=S(=O)(NCCCn1c(C2CC2)nc2ccc(C(c3ccc(Cl)cc3)c3ccc(Cl)cc3)cc21)c1cccc(Br)c1` [Example 9], the values for the EC50 in experiment [1] and in experiment [2] were 0.017 µM and 0.798 µM, respectively.
In the same order, the values of `O=C(O)c1cccc(CN2CCC(Cn3c(C4CC4)nc4ccc(C(c5ccc(Cl)cc5)c5ccc(Cl)cc5)cc43)CC2)c1` [Example 10] are 0.322 µM and 1.75 µM.
In the same order, the values of `O=C(O)c1cccc(-c2cccc(CCn3c(C4CC4)nc4ccc(C(c5ccc(Cl)cc5)c5ccc(Cl)cc5)cc43)c2)c1` [Example 11] are 0.0494 µM and 4.97 µM.
As for `O=C(O)C(c1ccc(Cl)cc1)(c1ccc(Cl)cc1)c1ccc2nc(C3CC3)n(CC3CCN(S(=O)(=O)C(F)(F)F)CC3)c2c1` [Example 12], the EC50 in experiment [1] and in experiment [2] was greater than 10 µM throughout.
Turning to `COC(=O)c1cccc(N2CCC(Cn3c(C4CC4)nc4ccc(C(c5ccc(Cl)cc5)c5ccc(Cl)cc5)cc43)CC2)c1` [Example 13], the 50% effective concentration (EC50) in experiment [1] and in experiment [2] was greater than 10 µM each time.
As for `COC(=O)C(c1ccc(Cl)cc1)(c1ccc(Cl)cc1)c1ccc2nc(C3CC3)n(CC3CCN(S(=O)(=O)C(F)(F)F)CC3)c2c1` [Example 14], the EC50 in experiment [1] is 0.017 µM; in experiment [2], greater than 10 µM.
For `O=C(O)c1ccc(S(=O)(=O)N2CCC(Cn3c(C4CC4)nc4ccc(C(c5ccc(Cl)cc5)c5ccc(Cl)cc5)cc43)CC2)cc1` [Example 15] the same measures were 0.073 µM and 0.7 µM.
Regarding `O=C(O)c1cc(OCCn2c(C3CC3)nc3ccc(C(c4ccc(Cl)cc4)c4ccc(Cl)cc4)cc32)cc(C(F)(F)F)c1` [Example 16], the concentration giving a half-maximal response (EC50) turned out to be 0.173 µM in experiment [1] and 0.698 µM in experiment [2].
Take `O=C(O)c1ccc(-c2cccc(CCn3c(C4CC4)nc4ccc(C(c5ccc(Cl)cc5)c5ccc(Cl)cc5)cc43)c2)cc1` [Example 17]: the EC50 in experiment [1] amounted to 0.0829 µM; in experiment [2], 9.4 µM.
For `COC(=O)c1cc(OCCn2c(C3CC3)nc3ccc(C(c4ccc(Cl)cc4)c4ccc(Cl)cc4)cc32)cc(C(F)(F)F)c1` [Example 18] the same measures were 0.0533 µM and greater than 10 µM.
In the same order, the values of `Clc1ccc(C(c2ccc(Cl)cc2)c2ccc3nc(C4CC4)n(CCc4cccc(Br)c4)c3c2)cc1` [Example 20] are 0.0156 µM and greater than 10 µM.
Take `O=C(O)c1ccc(S(=O)(=O)N[C@H]2CC[C@H](n3c(C4CC4)nc4ccc(C(c5ccc(Cl)cc5)c5ccc(Cl)cc5)cc43)CC2)cc1` [Example 21]: the half-maximal effective concentration (EC50) was 0.253 µM in experiment [1] and 4.54 µM in experiment [2].
